The values that follow come from ChEMBL document CHEMBL3046191, “Strong resistance to phosphine in the rusty grain beetle, Cryptolestes ferrugineus (Stephens) (Coleoptera: Laemophloeidae): its characterisation, a rapid assay for diagnosis and its distribution in Australia” (2013).

Converted amounts (≈) assume the structure as drawn.

Test [1] relates to Cryptolestes ferrugineus. The test can be described thus: Insecticidal activity against phosphine-weakly resistant Cryptolestes ferrugineus (rusty grain beetle) Lab-WR after 72 hr by FAO method.
The subject of test [2] is Cryptolestes ferrugineus. The test can be described thus: Insecticidal activity against phosphine-weakly resistant Cryptolestes ferrugineus (rusty grain beetle) Lab-WR after 48 hr by FAO method.
The subject of test [3] is Cryptolestes ferrugineus. The test can be described thus: Insecticidal activity against Cryptolestes ferrugineus (rusty grain beetle) Lab-S after 72 hr by FAO method.
Test [4] relates to Cryptolestes ferrugineus. The test can be described thus: Insecticidal activity against Cryptolestes ferrugineus (rusty grain beetle) Lab-S after 48 hr by FAO method.
In test [5] the test system is Cryptolestes ferrugineus. The test can be described thus: Insecticidal activity against phosphine-resistant Cryptolestes ferrugineus (rusty grain beetle) Lab-StR after 72 hr by FAO method.
For test [6], the system named is Cryptolestes ferrugineus. The test can be described thus: Insecticidal activity against phosphine-resistant Cryptolestes ferrugineus (rusty grain beetle) Lab-StR after 48 hr by FAO method.
The test system of test [7] is Cryptolestes ferrugineus. The test can be described thus: whole plant or invertebrate. Particulars: QQCF691, 144 h.
Description: Insecticidal activity against strongly phosphine-resistant Cryptolestes ferrugineus (rusty grain beetle) QQCF691 after 144 hr by FAO method
Test [8] has as its system Cryptolestes ferrugineus. The test can be described thus: whole plant or invertebrate. The following applies: QNCF134, 144 h.
Description: Insecticidal activity against strongly phosphine-resistant Cryptolestes ferrugineus (rusty grain beetle) QNCF134 after 144 hr by FAO method
For test [9], the system named is Cryptolestes ferrugineus. The test can be described thus: whole plant or invertebrate. Particulars: QNCF130, 144 h.
Description: Insecticidal activity against strongly phosphine-resistant Cryptolestes ferrugineus (rusty grain beetle) QNCF130 after 144 hr by FAO method
In test [10] the test system is Cryptolestes ferrugineus. The test can be described thus: whole plant or invertebrate. The following applies: QNCF129, 144 h.
Description: Insecticidal activity against strongly phosphine-resistant Cryptolestes ferrugineus (rusty grain beetle) QNCF129 after 144 hr by FAO method
In test [11] the test system is Cryptolestes ferrugineus. The test can be described thus: whole plant or invertebrate. Particulars: QNCF122, 144 h.
Description: Insecticidal activity against strongly phosphine-resistant Cryptolestes ferrugineus (rusty grain beetle) QNCF122 after 144 hr by FAO method
The subject of test [12] is Cryptolestes ferrugineus. The test can be described thus: whole plant or invertebrate. Particulars: QNCF110, 144 h.
Description: Insecticidal activity against strongly phosphine-resistant Cryptolestes ferrugineus (rusty grain beetle) QNCF110 after 144 hr by FAO method
The test system of test [13] is Cryptolestes ferrugineus. The test can be described thus: whole plant or invertebrate. Particulars: QNCF104, 144 h.
Description: Insecticidal activity against strongly phosphine-resistant Cryptolestes ferrugineus (rusty grain beetle) QNCF104 after 144 hr by FAO method
The subject of test [14] is Cryptolestes ferrugineus. The test can be described thus: whole plant or invertebrate. The following applies: QNCF102, 144 h.
Description: Insecticidal activity against strongly phosphine-resistant Cryptolestes ferrugineus (rusty grain beetle) QNCF102 after 144 hr by FAO method
Test [15] concerns Cryptolestes ferrugineus. The test can be described thus: whole plant or invertebrate. Particulars: QNCF101, 144 h.
Description: Insecticidal activity against strongly phosphine-resistant Cryptolestes ferrugineus (rusty grain beetle) QNCF101 after 144 hr by FAO method
Test [16] relates to Cryptolestes ferrugineus. The test can be described thus: whole plant or invertebrate. Particulars: QNCF83, 144 h.
Description: Insecticidal activity against strongly phosphine-resistant Cryptolestes ferrugineus (rusty grain beetle) QNCF83 after 144 hr by FAO method
Test [17] deals with Cryptolestes ferrugineus. The test can be described thus: whole plant or invertebrate. The following applies: Lab-WR, 144 h.
Description: Insecticidal activity against phosphine-weakly resistant Cryptolestes ferrugineus (rusty grain beetle) Lab-WR after 144 hr by FAO method
The test system of test [18] is Cryptolestes ferrugineus. The test can be described thus: whole plant or invertebrate. The following applies: Lab-StR, 144 h.
Description: Insecticidal activity against phosphine-resistant Cryptolestes ferrugineus (rusty grain beetle) Lab-StR after 144 hr by FAO method
Test [19] relates to Cryptolestes ferrugineus. The test can be described thus: whole plant or invertebrate. The following applies: Lab-S, 144 h.
Description: Insecticidal activity against Cryptolestes ferrugineus (rusty grain beetle) Lab-S after 144 hr by FAO method

Turning to `P` [PHOSPHINE], the LC50 in test [1] amounted to 0.037 µg/mL (≈ 1.09 µM); in test [2] it was 0.056 µg/mL (≈ 1.65 µM); in [3] it was 0.004 µg/mL (≈ 0.118 µM); in [4], 0.005 µg/mL (≈ 0.147 µM); in test [5] it was 6.37 µg/mL (≈ 187 µM); in [6] it was 6.57 µg/mL (≈ 193 µM). The LC50 in test [7] stood at 1.34 µg/mL (≈ 39.4 µM); in test [8] it was 1.22 µg/mL (≈ 35.9 µM); in test [9], 1.42 µg/mL (≈ 41.8 µM); in [10], 1.5 µg/mL (≈ 44.1 µM); in test [11], 1.77 µg/mL (≈ 52.1 µM); in [12] it was 0.97 µg/mL (≈ 28.5 µM). The LC50 came out at 1.21 µg/mL (≈ 35.6 µM) in test [13]; 1.31 µg/mL (≈ 38.5 µM) in [14]; 1.12 µg/mL (≈ 32.9 µM) in test [15]; 1.3 µg/mL (≈ 38.2 µM) in [16]; 0.022 µg/mL (≈ 0.647 µM) in [17]; 1.66 µg/mL (≈ 48.8 µM) in test [18]. In [19], this molecule had an LC50 of 0.003 µg/mL (≈ 0.0882 µM).

As a reminder, the LC50 is the concentration lethal to half of the exposed cells or organisms.
